Like-named read-outs stand apart in the source and are kept apart here.
How the values were obtained:
OVCAR3 = assay: Cell viability (CellTiter-Blue, 72 h), OVCAR3 ovarian cancer cells; format: cell-based; details: Homo sapiens, OVCAR-3
Procedure: (§1) The following cell lines were tested in this example: Lung Cancer (A549, NCI-H460); Pancreatic cancer (PANC1, Mia-Pa-Ca-2); Melanoma (WM115, A375); Ovarian cancer (OVCAR3, SKOV3); Gastric cancer (MKN45, HGC-27); Renal cancer (ACHN) and Bladder Cancer (RT112).
(§2) Each tumour cell line was maintained in vitro in RPMI 1640+10% heat inactivated FBS and 2 mM L-glutamine (growth media) at 37° C. in 5% CO2 and humidified conditions. The cells were harvested, washed, re-suspended into growth medium and counted. The cells were re-suspended into assay media (RPMI 1640+5% heat inactivated FBS+ and 2 mM L-glutamine) at 4×10^4 cells/ml (dependent upon cell type) and plated into the middle 240 wells of 384 well tissue culture plates (Corning CellBind, black-wall plates) 25 μl/well aliquots; 50 μl of growth media was aliquoted into the outer wells. There were 3 plates for each cell line.
(§3) The plates were incubated overnight at 37° C., in 5% humidified CO2.
(§4) The phytocannabinoid test compounds were prepared in 100% DMSO vehicle at a stock concentration of 20 and 40 mM.
(§5) Starting with the 20 mM stock in DMSO, this was serially diluted (2 fold) in DMSO in a 96-well plate, to 20 (no dilution), 10, 5, 2.5, 1.25, 0.625, 0.315, 0.157 and […]. Following this, 10 ul of each compound dilution was diluted into 990 ul of 1% (v/v) FBS media in a deep well block making the final concentrations of 200, 100, 50, 25, 12.5, 6.25, 3.125, 1.56 and 0.79 μM (2× final assay concentrations and 1% DMSO).
(§6) An equal volume of each cannabinoid in the combination (stock concentration 40 mM) was mixed together to make a stock of 20 mM of each cannabinoid in DMSO. This was serially diluted (2 fold) in DMSO in a 96-well plate, to 20 (no dilution), 10, 5, 2.5, 1.25, 0.625, 0.315, 0.157 and […]. Following this, 10 ul of each combination dilution was diluted into 990 ul of 1% (v/v) FBS media in a deep well block making the final concentrations of 200, 100, 50, 25, 12.5, 6.25, 3.125, 1.56 and 0.79 μM (2× final assay concentrations and 1% DMSO).
(§7) Cisplatin (stock of 1 mg/ml=3.33 mM in water) was diluted in 1% FBS media to give a stock concentration of 1 mM. This was then diluted in 1% FBS media from the stock solution to 200 μM, then serially diluted (3-fold) in 1% FBS media to 200 (no dilution), 66.66, 22.22, 7.41, 2.47, 0.82, 0.27, 0.09, 0.03 μM (2× final assay concentrations; no DMSO).
(§8) The plates were incubated for 72 h at 37° C. in 5% humidified CO2. To develop the plates, at 72 h, 10 μl of CellTiter-Blue™ reagent was added to each test/blank well.
(§9) The plates were incubated at 37° C., 5% humidified CO2. Fluorescence was measured using a Flex II Station plate reader (570 nm excitation wavelength, 600 nm emission wavelength, 590 nm cut-off) after 3 h.
(§10) The phytocannabinoid compounds CBD, CBGA, CBG, CBDA, THCV and THC were tested on a panel of lung (A549, NCI-H460), pancreatic (PANC1, Mia-Pa-Ca-2), melanoma (WM115, A375), ovarian (OVCAR3, SKOV3), gastric (MKN45, HGC-27), renal (ACHN) and bladder (RT112) cancer cell lines according to the protocol for 72 h in media containing 1% FBS.
(§11) The IC50 values for each phytocannabinoid and combination of CBD with the other phytocannabinoids was calculated for each cell line. The raw data values expressed in relative fluorescent units were normalised to the vehicle for each individual plate and any reduction in fluorescence indicated a decrease in viability.
(§12) This calculation was as described in Example 1 above.

HGC-27 = assay: Cell viability (CellTiter-Blue, 72 h), HGC-27 gastric cancer cells; format: cell-based; details: Homo sapiens
Procedure: as §1, §2, §3, §4, §5, §6, §7, §8, §9, §10, §11, §12

[1] = OVCAR3, 1% FBS, 72 h, read-out: Cell line IC50 value
[2] = OVCAR3 cells, 1% FBS, read-out: Dm (potency, median effect)
[3] = HGC-27, HGC27 cells, 1% FBS, read-out: Dm (potency, median effect)
[4] = HGC-27, 1% FBS, 72 h, read-out: Cell line IC50 value

| Structure (SMILES) | IC50 (OVCAR3; [1]) [µM] | IC50 (OVCAR3; [2]) [µM] | IC50 (HGC-27; [3]) [µM] | IC50 (HGC-27; [4]) [µM] |
| --- | --- | --- | --- | --- |
| CCCCCc1cc(O)c2c(c1)OC(C)(C)[C@@H]1CCC(C)=C[C@@H]21 [THC, Tetrahydrocannabinol, reference compound] | 5.9 | 4.42 | 2.74 | 2.8 |
| C=C(C)[C@@H]1CCC(C)=C[C@H]1c1c(O)cc(CCCCC)cc1O [CBD, Cannabidiol] | 2.8 | 2.14 | 1.72 | 1.5 |
| C=C(C)[C@@H]1CCC(C)=C[C@H]1c1c(O)cc(CCCCC)c(C(=O)O)c1O [CBDA, Cannabidiolic acid] | 6.7 | 5.51 | 10.4 | 1.3 |
| CCCCCc1cc(O)c(C/C=C(\C)CCC=C(C)C)c(O)c1C(=O)O [CBGA, Cannabigerolic acid] | 6.1 | 6.41 | 5.47 | 7.8 |
| CCCCCc1cc(O)c(C/C=C(\C)CCC=C(C)C)c(O)c1 [CBG, Cannabigerol] | 5.3 | 4.33 | 1.73 | 1.6 |
| CCCc1cc(O)c2c(c1)OC(C)(C)[C@@H]1CCC(C)=C[C@@H]21 [THCV, Tetrahydrocannabivarin] | 6.5 | 6.51 | 3.06 | 4.1 |
